“And” between values parts separate entries of the source, which are not always exact repeats. Equal entries are not always repeated.
Experiments:
[1] = test system: Colletotrichum gloeosporioides; test: Fungicidal activity, mycelial growth inhibition on PDA plates; details: for Inhibition rate: at a concentration of 26.5 μmol/L; for inhibition at 26.5 µM: read-out: Inhibition rate; for IC50: mycelial growth, 96 h dark incubation at 26 °C
Description: Pure water was used as a negative control. Mycelial plugs with a diameter of 5 mm were positioned in the middle of PDA plates that held various sample concentrations. Every treatment was carried out three times. […] The formula used to compute the suppression of mycelial growth was inhibition (%) = (Dc − Dt)/(Dc − 5) × 100%, where Dc and Dt are the diameters in millimeters of the treatment colony and the control colony, respectively. […] The tests, in turn, constructed t-statistics and determined the signifi-cance of differences between groups.

[2] = Octanol-water partition coefficient, shake-flask method; format: physicochemical; details: n-octanol/water, 25 °C
Description: Initially, a n-octanol solution containing 2000 mg/L of the compound was mixed with water in centrifuge tubes at 1:2, 1:1, and 2:1 volume ratios, with two parallel samples for each ratio. All tubes were shaken at a constant temperature of 25 °C for 3 h. Subsequently, the samples were centrifuged at 4000 rpm for 10 min. The octanol and aqueous phases were then carefully collected and diluted tenfold with methanol, and their concentrations were measured using HPLC-UV and HPLC-MS/MS, respectively. Instrument specifications are detailed in the Supporting Information.

[3] = Interfacial surface tension, Wilhelmy plate method; format: physicochemical; details: saturated aqueous solution, 25 °C; no unit printed with the values (method: mN/m)
Description: Pure water’s surface tension was used to calibrate the device. After cleaning and drying, the sensing platinum plate was slowly oriented perpendicular to the solution interface. The plate will stop when the liquid surface tension and other relevant forces reach a balance. The interfacial surface tension values of the test chemicals were noted. Each compound was determined with three parallel samples.

[4] = Photostability under UV irradiation (photolysis kinetics); format: physicochemical; details: aqueous solution 26.6 μmol/L, 15 W UV lamp 254 nm, 25 °C; for half-life at 26.6 μmol/L: read-out: t1/2, photolysis half-life (converted)
Description: Photostability evaluation. […] At different time intervals (0, 0.5, 1, 1.5, 2, 3, 4, and 6 h), 100 μL of the solutions was accurately removed from the vials, diluted tenfold with methanol, and analyzed by HPLC-MS/MS. Instrument specifications are detailed in the Supporting Information.
As dark controls, aluminum foil-wrapped quartz tubes were used to prevent the impact of outside variables. […] The coefficient of determination r^2 was used to describe the goodness of fit of the curves. The half-lives t1/2 of the chemicals were calculated by the following formula:(2) t1/2=−ln(0.5)/K

[5] = parameters: method as in earlier work; details: cited from earlier work
[6] = weak base; no reference given; cited from earlier work
[7] = test system: aquatic organisms; parameters: method as in earlier work; details: cited from earlier work
[8] = Colletotrichum gloeosporioides, 96 h

## CC(=O)O [Acetic acids, Acetic acid]
[1]
  Inhibition rate: 8.3 ± 2.3%

## O=C(O)c1ccccc1 [Benzoic acids, Benzoic acid]
[1]; Colletotrichum gloeosporioides
  inhibition at 26.5 µM: 7.2 ± 1.2%

## O=C(O)/C=C/c1ccccc1 [Cinnamic acids, Cinnamic acid]
[1]; Colletotrichum gloeosporioides
  inhibition at 26.5 µM: 7.5 ± 2.4%

## CC(O)C(=O)O (stereo not shown) [Lactic acids, Lactic acid]
[1]; Colletotrichum gloeosporioides
  inhibition at 26.5 µM: 6 ± 1%

## CCCCCCCCC(=O)O [Nonanoic acids, Nonanoic acid]
[1]; Colletotrichum gloeosporioides
  inhibition at 26.5 µM: 1.8 ± 1.3%

## CCCCCCCC/C=C\CCCCCCCC(=O)O [Oleic acids, Oleic acid]
[1]; Colletotrichum gloeosporioides
  inhibition at 26.5 µM: 3.4 ± 1.3%

## CCCN(CCOc1c(Cl)cc(Cl)cc1Cl)C(=O)n1ccnc1 [Prochloraz, N-propyl-N-(2,4,6-trichlorophenoxy)ethyl-imidazole-1-carboxamide]
[2]
  logKow: 3.52
[3]
  Interfacial surface tension: 51.75
[4]
  K, first-order photolysis rate constant: 0.641 h⁻¹
  half-life at 26.6 μmol/L: 1.08 h
[5]
  Photolysis half-life in water: 36 h
[6]
  pKa: 3.8
[7]
  Concentrations at which embryonic mortality and developmental effects were observed: 2400 ng/mL and 4800 ng/mL
[1]; [8]
  IC50: 1.39 µM and 0.52 µg/mL
[1]; Colletotrichum gloeosporioides
  inhibition at 26.5 µM: 100 ± 0.1%

## CC(=O)C(=O)O [Pyruvic acids, Pyruvic acid]
[1]; Colletotrichum gloeosporioides
  inhibition at 26.5 µM: 4.5 ± 0.4%

## O=C(O)c1ccccc1O [Salicylic acids, Salicylic acid]
[1]; Colletotrichum gloeosporioides
  inhibition at 26.5 µM: 4.5 ± 0.3%

## O=C([O-])c1ccccc1O.[Na+] [Sodium Salicylate]
[1]
  Inhibition rate: 2.0 ± 2.7%

## CC(=O)[O-].[Na+] [Sodium acetate]
[1]
  Inhibition rate: 5.9 ± 0.5%

## O=C([O-])c1ccccc1.[Na+] [Sodium benzoate]
[1]
  Inhibition rate: 3.0 ± 1.1%

## O=C([O-])/C=C/c1ccccc1.[Na+] [Sodium cinnamate]
[1]
  Inhibition rate: 2.8 ± 1.1%

## CC(O)C(=O)[O-].[Na+] (stereo not shown) [Sodium lactate]
[1]
  Inhibition rate: 4.0 ± 0.4%

## CCCCCCCCC(=O)[O-].[Na+] [Sodium nonanoate]
[1]
  Inhibition rate: 2.9 ± 0.3%

## CCCCCCCC/C=C\CCCCCCCC(=O)[O-].[Na+] [Sodium oleate]
[1]
  Inhibition rate: 3.9 ± 2.6%

## CC(=O)C(=O)[O-].[Na+] [Sodium pyruvate]
[1]
  Inhibition rate: 3.5 ± 0.2%

## CC(=O)O.CCCN(CCOc1c(Cl)cc(Cl)cc1Cl)C(=O)n1ccnc1 [[Pro][AceA]] [listing 1 of 2 here]
[4]
  half-life at 26.6 μmol/L: 1.73 h
[1]; [8]
  IC50: 0.53 µg/mL

## CC(=O)O.CCCN(CCOc1c(Cl)cc(Cl)cc1Cl)C(=O)n1ccnc1 [[Pro][AceA]] [listing 2 of 2 here]
[4]
  K, first-order photolysis rate constant: 0.400 h⁻¹
[1]
  IC50: 1.22 µM

## CCCN(CCOc1c(Cl)cc(Cl)cc1Cl)C(=O)n1ccnc1.O=C(O)c1ccccc1 [[Pro][BenA]] [listing 1 of 2 here]
[4]
  half-life at 26.6 μmol/L: 0.9 h
[1]; [8]
  IC50: 1.04 µg/mL

## CCCN(CCOc1c(Cl)cc(Cl)cc1Cl)C(=O)n1ccnc1.O=C(O)c1ccccc1 [[Pro][BenA]] [listing 2 of 2 here]
[4]
  K, first-order photolysis rate constant: 0.774 h⁻¹
[1]
  IC50: 2.09 µM

## CCCN(CCOc1c(Cl)cc(Cl)cc1Cl)C(=O)n1ccnc1.O=C(O)/C=C/c1ccccc1 [[Pro][CinA]]
[4]
  K, first-order photolysis rate constant: 0.305 h⁻¹
[1]
  IC50: 2 µM and 1.05 mg/L

## CC(O)C(=O)O.CCCN(CCOc1c(Cl)cc(Cl)cc1Cl)C(=O)n1ccnc1 [[Pro][LacA]] [listing 1 of 2 here]
[4]
  half-life at 26.6 μmol/L: 1.77 h
[1]; [8]
  IC50: 0.81 µg/mL

## CC(O)C(=O)O.CCCN(CCOc1c(Cl)cc(Cl)cc1Cl)C(=O)n1ccnc1 [[Pro][LacA]] [listing 2 of 2 here]
[4]
  K, first-order photolysis rate constant: 0.391 h⁻¹
[1]
  IC50: 1.74 µM

## CCCCCCCCC(=O)O.CCCN(CCOc1c(Cl)cc(Cl)cc1Cl)C(=O)n1ccnc1 [[Pro][NonA]]
[3]
  Interfacial surface tension: 41.24
[4]
  K, first-order photolysis rate constant: 0.438 h⁻¹
  t1/2, photolysis half-life: 1.58 h

## CCCCCCCCC=CCCCCCCCC(=O)O.CCCN(CCOc1c(Cl)cc(Cl)cc1Cl)C(=O)n1ccnc1 [[Pro][OleA]]
[3]
  Interfacial surface tension: 42.53
[4]
  K, first-order photolysis rate constant: 0.552 h⁻¹
[1]
  IC50: 1.33 µg/mL

## CCCN(CCOc1c(Cl)cc(Cl)cc1Cl)C(=O)n1ccnc1 [[Pro][OleA]]
[1]
  IC50: 2.02 µM

## CC(=O)C(=O)O.CCCN(CCOc1c(Cl)cc(Cl)cc1Cl)C(=O)n1ccnc1 [[Pro][PyrA]]
[4]
  K, first-order photolysis rate constant: 0.383 h⁻¹
  t1/2, photolysis half-life: 1.81 h

## CCCN(CCOc1c(Cl)cc(Cl)cc1Cl)C(=O)n1ccnc1.O=C(O)c1ccccc1O [[Pro][SalA]] [listing 1 of 2 here]
[4]
  half-life at 26.6 μmol/L: 1.73 h
[1]; [8]
  IC50: 1 µg/mL

## CCCN(CCOc1c(Cl)cc(Cl)cc1Cl)C(=O)n1ccnc1.O=C(O)c1ccccc1O [[Pro][SalA]] [listing 2 of 2 here]
[4]
  K, first-order photolysis rate constant: 0.401 h⁻¹
[1]
  IC50: 1.94 µM

— PMC11990615 (Molecules, 2025)
